Laboratory results taken from ChEMBL document CHEMBL4190331, “Discovery of Potent EV71 Capsid Inhibitors for Treatment of HFMD” (ACS Med Chem Lett, 2017).
Activity calls are given as the source filed them. The rule behind the calls is not given here.

Assays:
[1] = Cytotoxicity against human RD cells assessed as reduction in cell viability after 72 hrs by CCK-8 assay
[2] = […] bioavailability in CD-1 mouse at 5 mg/kg, ip administered as single dose; assay type: ADME, organism-based; settings: in vivo, intraperitoneal
[3] = Cmax in CD-1 mouse at 5 mg/kg, ip administered as single dose; assay type: ADME, organism-based; set-up: dose 5 mg/kg, route intraperitoneal; settings: in vivo
[4] = AUC in CD-1 mouse at 2 mg/kg, iv administered as single dose; assay type: ADME, organism-based; settings: in vivo
[5] = Elimination half life in CD-1 mouse at 2 mg/kg, iv administered as single dose; assay type: ADME, organism-based; settings: in vivo, read-out: beta t1/2 (converted)
[6] = Stability in mouse liver microsomes; assay type: ADME, microsome
[7] = Volume of distribution in CD-1 mouse at 2 mg/kg, iv administered as single dose; assay type: ADME, organism-based; settings: in vivo
[8] = Tmax in CD-1 mouse at 5 mg/kg, ip administered as single dose; assay type: ADME, organism-based; settings: in vivo
[9] = Clearance in CD-1 mouse at 2 mg/kg, iv administered as single dose; assay type: ADME, organism-based; settings: in vivo
[10] = AUC in CD-1 mouse at 5 mg/kg, ip administered as single dose; assay type: ADME, organism-based; settings: in vivo
Enterovirus A71 [11] = test: Antiviral activity against EV71 695F infected in ICR mouse assessed as effect on clinical score at 0.4 mg/kg, ip qd administered for 7 days dosed prior to viral infection measured for 2 weeks; assay type: functional, organism-based
Enterovirus A71 [12] = test: Antiviral activity against EV71 695F infected in ICR mouse assessed as decrease in body weight loss at 0.4 mg/kg, ip qd administered for 7 days dosed prior to viral infection measured for 2 weeks; assay type: functional, organism-based
Enterovirus A71 [13] = test: Antiviral activity against EV71 695F infected in ICR mouse assessed as protection against viral infection by measuring mouse survival at 0.4 mg/kg, ip qd administered for 7 days dosed prior to viral infection measured on day 14 relative to control; assay type: functional; settings: Enterovirus A
Mus musculus [14] = test: Toxicity in ICR mouse infected with EV71 695F assessed as death at 100 mg/kg, ip qd administered for 7 days measured on day 5; assay type: organism-based; settings: in vivo, 168 h
Mus musculus [15] = test: Toxicity in ICR mouse infected with EV71 695F assessed as death at 50 mg/kg, ip qd administered for 7 days measured on day 6; assay type: organism-based; settings: in vivo, 168 h
[16] = Tmax in CD-1 mouse at 5 mg/kg, po administered as single dose; assay type: ADME, organism-based; settings: in vivo
[17] = […] bioavailability in CD-1 mouse at 5 mg/kg administered as single dose; assay type: ADME, organism-based; settings: in vivo, po
[18] = target: Voltage-gated inwardly rectifying potassium channel KCNH2 (Homo sapiens, UniProt Q12809); test: Inhibition of human ERG expressed in CHO-K1 cells by Qpatch assay
[19] = Cmax in CD-1 mouse at 5 mg/kg, po administered as single dose; assay type: ADME, organism-based; set-up: dose 5 mg/kg, route oral; settings: in vivo
[20] = AUC in CD-1 mouse at 5 mg/kg, po administered as single dose; assay type: ADME, organism-based; settings: in vivo
Enterovirus A71 [21] = test: Antiviral activity against EV71 695F infected in ICR mouse assessed as decrease in body weight loss at 10 mg/kg, ip qd administered for 7 days dosed after viral infection measured for 2 weeks; assay type: functional, organism-based
Enterovirus A71 [22] = test: Antiviral activity against EV71 695F infected in ICR mouse assessed as decrease in body weight loss at 10 mg/kg, ip qd administered for 7 days dosed prior to viral infection measured for 2 weeks; assay type: functional, organism-based
Enterovirus A71 [23] = test: Antiviral activity against EV71 695F infected in ICR mouse assessed as effect on clinical score at 10 mg/kg, ip qd administered for 7 days dosed after viral infection measured for 2 weeks; assay type: functional, organism-based
Enterovirus A71 [24] = test: Antiviral activity against EV71 695F infected in ICR mouse assessed as protection against viral infection by measuring mouse survival at 10 mg/kg, ip qd administered for 7 days dosed after viral infection measured for 2 weeks relative to control; assay type: functional; settings: Enterovirus A
Enterovirus A71 [25] = test: Antiviral activity against EV71 695F infected in ICR mouse assessed as effect on clinical score at 10 mg/kg, ip qd administered for 7 days dosed prior to viral infection measured for 2 weeks; assay type: functional, organism-based
Enterovirus A71 [26] = test: Antiviral activity against EV71 695F infected in ICR mouse assessed as protection against viral infection by measuring mouse survival at 10 mg/kg, ip qd administered for 7 days dosed prior to viral infection measured for 2 weeks relative to control; assay type: functional; settings: Enterovirus A

Chain of Voltage-gated inwardly rectifying potassium channel KCNH2 (Q12809 whole entry): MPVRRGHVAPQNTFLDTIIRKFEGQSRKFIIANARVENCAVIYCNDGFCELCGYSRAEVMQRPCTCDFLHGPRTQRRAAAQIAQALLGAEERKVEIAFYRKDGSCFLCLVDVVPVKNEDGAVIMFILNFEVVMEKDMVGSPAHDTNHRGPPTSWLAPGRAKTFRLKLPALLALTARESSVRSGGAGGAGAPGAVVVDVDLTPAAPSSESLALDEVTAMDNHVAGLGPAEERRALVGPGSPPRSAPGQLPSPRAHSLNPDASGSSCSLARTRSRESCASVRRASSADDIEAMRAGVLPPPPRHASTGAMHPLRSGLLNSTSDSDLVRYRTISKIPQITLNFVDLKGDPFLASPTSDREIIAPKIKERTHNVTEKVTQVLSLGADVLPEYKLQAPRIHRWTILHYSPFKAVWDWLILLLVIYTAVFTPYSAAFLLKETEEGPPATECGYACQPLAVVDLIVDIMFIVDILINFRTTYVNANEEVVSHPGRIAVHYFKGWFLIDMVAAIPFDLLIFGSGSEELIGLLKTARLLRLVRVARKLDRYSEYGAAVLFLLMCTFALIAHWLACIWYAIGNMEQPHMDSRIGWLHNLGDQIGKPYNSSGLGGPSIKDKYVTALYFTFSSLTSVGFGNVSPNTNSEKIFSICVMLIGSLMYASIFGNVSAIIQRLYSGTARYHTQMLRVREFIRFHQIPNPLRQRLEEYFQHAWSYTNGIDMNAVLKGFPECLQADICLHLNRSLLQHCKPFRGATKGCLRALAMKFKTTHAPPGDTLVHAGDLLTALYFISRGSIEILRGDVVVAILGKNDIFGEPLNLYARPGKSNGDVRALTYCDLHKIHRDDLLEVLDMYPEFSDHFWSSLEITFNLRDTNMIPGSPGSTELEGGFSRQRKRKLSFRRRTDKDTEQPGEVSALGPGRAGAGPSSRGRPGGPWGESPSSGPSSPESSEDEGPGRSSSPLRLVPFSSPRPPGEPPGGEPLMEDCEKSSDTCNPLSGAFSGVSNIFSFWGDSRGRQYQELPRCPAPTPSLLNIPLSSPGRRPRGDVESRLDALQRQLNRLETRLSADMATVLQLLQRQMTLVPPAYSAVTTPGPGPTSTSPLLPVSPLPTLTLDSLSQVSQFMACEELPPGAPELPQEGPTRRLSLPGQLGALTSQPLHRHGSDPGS

Structure (SMILES) | CC50 at 72 h ([1]; RD cells) | bioavailability [2] | Cmax [3] | AUC [4] | half-life [5] | Vd [7] | Tmax [8] | clearance [9] | AUC [10] | further results
CCO/N=C1\CCCc2cc(OCCCCCN3CCN(c4ccnc(N)c4)S3(=O)=O)ccc21 | > 100 µM | – | – | – | – | – | – | – | – | –
CCO/N=C(\CC)c1ccc(OCCCCCN2CCN(c3ccnc(N)c3)S2(=O)=O)cc1 | > 100 µM | – | – | – | – | – | – | – | – | –
CCn1ncc2cc(OCCCCCN3CCN(c4ccnc(N)c4)S3(=O)=O)ccc21 | > 100 µM | – | – | – | – | – | – | – | – | –
CCn1ccc2cc(OCCCCCN3CCN(c4ccnc(N)c4)S3(=O)=O)ccc21 | > 100 µM | – | – | – | – | – | – | – | – | –
O=C1N(CCCCC2CCc3cc(-c4ccc(Cl)cc4)ccc3O2)CCN1c1ccncc1 (configuration not stated) | – | 86% | 3360 nM | 11 µM·h | 5 h | 3 L/kg | 1 h | 6 mL/min/kg | 23.2 µM·h | Stability [6]: 40 to 50 µL/min/mg; CC50 at 72 h ([1]; rd): 3.4 µM
O=C1N(CCCCc2cc3cc(-c4ccc(Cl)cc4)ccc3o2)CCN1c1ccncc1 | 4.3 µM | – | – | – | – | – | – | – | – | –
O[C@H]1[C@H]2c3cc4c(cc3CN3CCC(=C[C@@H]1O)[C@H]23)OCO4 [LYCORINE] | – | – | – | – | – | – | – | – | – | Activity (Enterovirus A71 [11]): Active; Activity (Enterovirus A71 [12]): Active; survival at 0.4 mg/kg (Enterovirus A71 [13]): 30%
NC(=O)c1ncn([C@@H]2O[C@H](CO)[C@@H](O)[C@H]2O)n1 [RIBAVIRIN] | – | – | – | – | – | – | – | – | – | Activity (Mus musculus [14]): Toxic; Activity (Mus musculus [15]): Toxic
Nc1cc(N2CCN(CCCCCOc3ccc(-c4ccc(Cl)cc4)cc3)S2(=O)=O)ccn1 | > 100 µM | – | – | – | – | – | – | – | – | –
O=S1(=O)N(CCCCCOc2ccc(-c3ccc(Cl)cc3)cc2)CCN1c1ccncc1 | > 100 µM | 63% | 682 nM | 5.71 µM·h | 6 h | 5 L/kg | 2 h | 12 mL/min/kg | 9.01 µM·h | Tmax [16]: 2 h; bioavailability [17]: 43%; IC50 [18]: > 30 µM; Stability [6]: < 10 µL/min/mg; Cmax [19]: 617 nM; AUC [20]: 6.17 µM·h
O=C1CN(c2ccncc2)CCN1CCCCCOc1ccc(-c2ccc(Cl)cc2)cc1 | – | 112% | 1260 nM | 3.34 µM·h | 6 h | 10 L/kg | 2 h | 21 mL/min/kg | 8.95 µM·h | Stability [6]: 40 to 50 µL/min/mg; CC50 at 72 h ([1]; rd): 3.2 µM
O=C1N(CCCCc2nc3cc(-c4ccc(Cl)cc4)ccc3o2)CCN1c1ccncc1 | > 100 µM | – | – | – | – | – | – | – | – | –
O=C1N(CCCCCOc2ccc(-c3ccc(Cl)cc3)cc2)CCN1c1ccncc1 | > 100 µM | 64% | 453 nM | 2.73 µM·h | 4 h | 9 L/kg | 2 h | 28 mL/min/kg | 4.28 µM·h | Stability [6]: 40 to 50 µL/min/mg
CCc1noc2cc(OCCCCCN3CCN(c4ccnc(N)c4)S3(=O)=O)ccc12 | > 100 µM | – | – | – | – | – | – | – | – | –
CCO/N=C(\C)c1ccc(OCCCCCN2CCN(c3ccnc(N)c3)S2(=O)=O)cc1 | > 100 µM | – | – | – | – | – | – | – | – | –
CCO/N=C/c1ccc(OCCCCCN2CCN(c3ccnc(N)c3)S2(=O)=O)cc1 | – | 79% | 1440 nM | 0.592 µM·h | 1.6 h | 3.2 L/kg | 0.5 h | 36 mL/min/kg | 2.45 µM·h | CC50 at 72 h ([1]; rd): > 100 µM
CCO/N=C1\CCc2cc(OCCCCCN3CCN(c4ccnc(N)c4)S3(=O)=O)ccc21 | – | 88% | 2150 nM | 0.821 µM·h | 1.5 h | 2.8 L/kg | 0.7 h | 34 mL/min/kg | 3.87 µM·h | Activity (Enterovirus A71 [21]): Active; Activity (Enterovirus A71 [22]): Active; Activity (Enterovirus A71 [23]): Active; survival at 10 mg/kg (Enterovirus A71 [24]): 100%; CC50 at 72 h ([1]; rd): 42 µM; Activity (Enterovirus A71 [25]): Active; survival at 10 mg/kg (Enterovirus A71 [26]): 100%
CCO/N=C/c1ccc(OCCC(C)CCN2CCN(c3ccnc(N)c3)C2=O)cc1 (configuration not stated) | – | 92% | 1560 nM | 0.371 µM·h | 0.3 h | 2.4 L/kg | 0.3 h | 105 mL/min/kg | 1.71 µM·h | CC50 at 72 h ([1]; rd): 5 µM
